# Read-outs that look alike come from different tables or passages of the source.
substance,measurement,setting,value
p-benzosemiquinone [p-BSQ],half-life of p-BSQ,aqueous solution at pH 7.4,about 1.5 hours
same,half-life of p-BSQ,solid state at the room temperature,48 h
